Reference: patent publication US20240417405A1, “Substituted Spiro Derivatives” (Janssen Pharmaceutica NV, priority 2021, published 2024)

Assays:
[1] = biological target: T1, menin/MLL (terbium chelate-labeled menin, FITC-MBM1 peptide) (Homo sapiens, UniProt O00255, T541A); assay: Menin/MLL homogenous time-resolved fluorescence (HTRF) assay; type: binding; conditions: 30 min incubation
T1 construct: Menin (a.a 1-610-6xhis tag)
T1 sequence (O00255 with tags, fused parts or gaps T541A): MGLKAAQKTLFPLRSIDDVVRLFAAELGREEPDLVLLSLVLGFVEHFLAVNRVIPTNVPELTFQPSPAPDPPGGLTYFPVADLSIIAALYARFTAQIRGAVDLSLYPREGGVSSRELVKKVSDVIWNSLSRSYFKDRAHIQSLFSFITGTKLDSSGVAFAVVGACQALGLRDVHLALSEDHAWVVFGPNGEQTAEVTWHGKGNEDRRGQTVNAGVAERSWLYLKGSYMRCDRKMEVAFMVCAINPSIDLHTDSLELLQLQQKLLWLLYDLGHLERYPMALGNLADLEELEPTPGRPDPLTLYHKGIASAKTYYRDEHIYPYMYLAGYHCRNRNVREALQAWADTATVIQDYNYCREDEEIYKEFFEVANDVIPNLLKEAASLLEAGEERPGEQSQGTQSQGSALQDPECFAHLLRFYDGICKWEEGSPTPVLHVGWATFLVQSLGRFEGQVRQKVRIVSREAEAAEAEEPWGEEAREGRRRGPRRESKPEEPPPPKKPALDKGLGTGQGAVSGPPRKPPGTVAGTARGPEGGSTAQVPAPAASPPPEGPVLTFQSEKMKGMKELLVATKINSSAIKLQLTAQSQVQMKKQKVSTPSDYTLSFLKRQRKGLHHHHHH
Protocol: 1) Menin/MLL Homogenous Time-Resolved Fluorescence (HTRF) Assay
To an untreated, white 384-well microtiter plate was added 40 nL 200× test compound in DMSO and 4 μL 2× terbium chelate-labeled menin (vide infra for preparation) in assay buffer (40 mM Tris.HCl, pH 7.5, 50 mM NaCl, 1 mM DTT (dithiothreitol) and 0.05% Pluronic F-127). After incubation of test compound and terbium chelate-labeled menin for 30 min at ambient temperature, 4 μL 2× FITC-MBM1 peptide (FITC-β-alanine-SARWRFPARPGT-NH2 (SEQ ID NO: 3)) (“FITC” means fluorescein isothiocyanate) in assay buffer was added, the microtiter plate centrifuged at 1000 rpm for 1 min and the assay mixtures incubated for 15 min at ambient temperature. The relative amount of menin FITC-MBM1 complex present in an assay mixture is determined by measuring the homogenous time-resolved fluorescence (HTRF) of the terbium/FITC donor/acceptor fluorophore pair using an EnVision microplate reader (ex. 337 nm/terbium em. 490 nm/FITC em. 520 nm) at ambient temperature. The degree of fluorescence resonance energy transfer (the HTRF value) is expressed as the ratio of the fluorescence emission intensities of the FITC and terbium fluorophores (F^em 520 nm/F^em 490 nm). The final concentrations of reagents in the binding assay are 200 pM terbium chelate-labeled menin, 75 nM FITC-MBM1 peptide and 0.5% DMSO in assay buffer. Dose-response titrations of test compounds are conducted using an 11 point, four-fold serial dilution scheme, starting typically at 10 μM.
Compound potencies were determined by first calculating % inhibition at each compound concentration according to equation 1:
% inhibition=((HC−LC)−(HTRF^compound−LC))/(HC−LC))*100 (Eqn 1)
Where LC and HC are the HTRF values of the assay in the presence or absence of a saturating concentration of a compound that competes with FITC-MBM1 for binding to menin, and HTRF^compound is the measured HTRF value in the presence of the test compound. HC and LC HTRF values represent an average of at least 10 replicates per plate.
% inhibition=Bottom+(Top−Bottom)/(1+10^((logIC50−log[cmpd])*h)) (Eqn 2)
Where Bottom and Top are the lower and upper asymptotes of the dose-response curve, respectively, IC50 is the concentration of compound that yields 50% inhibition of signal and h is the Hill coefficient. IC50 values below 0.1 nM in the HTRF assay were reported as 0.1 nM in the Table below (detection limit).
Preparation of Terbium cryptate labeling of Menin: Menin (a.a 1-610-6xhis tag (“6xhis tag” disclosed as SEQ ID NO: 2), 2.3 mg/mL in 20 mM Hepes (2-[4-(2-Hydroxyethyl)-1-piperazinyl]ethane sulfonic acid), 80 mM NaCl, 5 mM DTT (Dithiothreitol), pH 7.5) was labeled with terbium cryptate as follows. 200 μg of Menin was buffer exchanged into 1× Hepes buffer. 6.67 μM Menin was incubated with 8-fold molar excess NHS (N-hydroxysuccinimide)-terbium cryptate for 40 minutes at room temperature. Half of the labeled protein was purified away from free label by running the reaction over a NAP5 column with elution buffer (0.1 M Hepes, pH 7+0.1% BSA (bovine serum albumin)). The other half was eluted with 0.1 M phosphate buffered saline (PBS), pH7. 400 μl of eluent was collected for each, aliquoted and frozen at −80° C. The final concentration of terbium-labeled Menin protein was 115 μg/mL in Hepes buffer and 85 μg/mL in PBS buffer, respectively.

MOLM14 cells = assay: Proliferation assay, spheroid-like growth, MOLM14 (MLL-AF9 rearranged); type: cell-based, human; conditions: Homo sapiens, MOLM-14, 192 h, 8 days, confluence as measure of spheroid size, read-out: spheroid assay_OneTime MOLM14 IC50
Protocol: The anti-proliferative effect of menin/MLL protein/protein interaction inhibitor test compounds was assessed in human leukemia cell lines. The cell line MOLM14 harbors a MLL translocation and expresses the MLL fusion proteins MLL-AF9, respectively, as well as the wildtype protein from the second allele. […] KO-52 was used as a control cell line containing two MLL (KMT2A) wildtype alleles in order to exclude compounds that display general cytotoxic effects.
MOLM14 cells were cultured in RPMI-1640 (Sigma Aldrich) supplemented with 10% heat-inactivated fetal bovine serum (HyClone), 2 mM L-glutamine (Sigma Aldrich) and 50 μg/ml gentamycin (Gibco). KO-52 cell lines were propagated in alpha-MEM (Sigma Aldrich) supplemented with 20% heat-inactivated fetal bovine serum (HyClone), 2 mM L-glutamine (Sigma Aldrich) and 50 μg/ml gentamycin (Gibco).
In order to assess the anti-proliferative effects, 200 MOLM14 cells, or 300 KO-52 cells were seeded in 200 μl media per well in 96-well round bottom, ultra-low attachment plates (Costar, catalogue number 7007). Cell seeding numbers were chosen based on growth curves to ensure linear growth throughout the experiment. Test compounds were added at different concentrations and the DMSO content was normalized to 0.3%. Cells were incubated for 8 days at 37° C. and 5% CO2. Spheroid like growth was measured in real-time by live-cell imaging (IncuCyteZOOM, Essenbio, 4× objective) acquiring images at day 8. Confluence (%) as a measure of spheroid size was determined using an integrated analysis tool.
In order to determine the effect of the test compounds over time, the confluence in each well as a measure of spheroid size, was calculated. Confluence of the highest dose of a reference compound was used as baseline for the LC (Low control) and the confluence of DMSO treated cells was used as 0% cytotoxicity (High Control, HC).
Absolute IC50 values were calculated as percent change in confluence as follows:
LC=Low Control: cells treated with e.g. 1 μM of the cytotoxic agent staurosporin, or e.g. cells treated with a high concentration of an alternative reference compound
GraphPad Prism (version 7.00) was used to calculate the IC50. Dose-response equation was used for the plot of % Effect vs Log 10 compound concentration with a variable slope and fixing the maximum to 100% and the minimum to 0%.

In the case of `CC(C)[C@H]([C@H]1C[C@@H](N2CC3(CCCCO3)C2)C1)N1CC2(CCN(c3ncnnc3Oc3ccc(F)cc3-c3nnccc3C3CC3)C2)C1` (single isomer, unassigned) [Compound 267], the IC50 [1] is reported as 1.3 nM and the IC50 (MOLM14 cells) is reported as 180 nM.
`CC(C)[C@@H]([C@H]1C[C@@H](N2CC3(CCCCO3)C2)C1)N1CC2(CCN(c3ncnnc3Oc3ccc(F)cc3-c3nnccc3C3CC3)C2)C1` (single isomer, unassigned) [Compound 266] was tested, and the IC50 [1] was 0.1 nM and the IC50 (MOLM14 cells) was < 2 nM.
In the case of `CC(=O)N[C@H]1C[C@@H](C(C(C)C)N2CC3(CCN(c4ncnnc4Oc4ccc(F)cc4-c4nnccc4C4CC4)C3)C2)C1` (some centres unmarked) [Compound 183], the IC50 [1] is reported as 0.4 nM and the IC50 (MOLM14 cells) is reported as 160 nM.
`CC(C)[C@@H]([C@H]1C[C@@H](N2C[C@H]3COC[C@H]3C2)C1)N1CC2(CCN(c3ncnnc3Oc3ccc(F)cc3-c3cnncc3C3CC3)C2)C1` (single isomer, unassigned) [Compound 278] was tested, and the IC50 [1] was 0.1 nM and the IC50 (MOLM14 cells) was 2 nM.
`CC(=O)N1CC2(C1)CN([C@H]1C[C@@H]([C@H](C(C)C)N3CC4(CCN(c5ncnnc5Oc5ccc(F)cc5-c5cnc(C)nc5C5CC5)C4)C3)C1)C2` [Compound 394] was tested, and the IC50 [1] was 0.083 nM and the IC50 (MOLM14 cells) was 3 nM.
With `CC(C)[C@H]([C@H]1C[C@@H](NC2(C)CCS(=O)(=O)CC2)C1)N1CC2(CCN(c3ncnnc3Oc3ccc(F)cc3-c3cncnc3C3CC3)C2)C1` (single isomer, unassigned) [Compound 44] the IC50 [1] was 0.1 nM and the IC50 (MOLM14 cells) was 27 nM.
`CC(C)C([C@H]1C[C@@H](N2CC3(COC3)C2)C1)N1CC2(CCN(c3ncnnc3Oc3ccc(F)cc3-c3ncc(C#N)cc3C3CC3)C2)C1` (some centres unmarked) [Compound 140] showed an IC50 [1] of 0.5 nM and an IC50 (MOLM14 cells) of 42 nM.
Compound `CC(C)[C@@H]([C@H]1C[C@@H](N2CCC3(CCO3)CC2)C1)N1CC2(CCN(c3ncnnc3Oc3ccc(F)cc3-c3cnncc3C3CC3)C2)C1` (single isomer, unassigned) [Compound 281a] has an IC50 [1] of 0.17 nM and an IC50 (MOLM14 cells) of 10 nM.
For `CC(C)C(C1CC(Nc2ncc3cn[nH]c3n2)C1)N1CC2(CCN(c3ncnnc3Oc3ccc(F)cc3-c3cncnc3C3CC3)C2)C1` (single isomer, unassigned) [Compound 411], the IC50 [1] was 0.15 nM and the IC50 (MOLM14 cells) was 10 nM.
`CC(C)[C@H]([C@H]1C[C@@H](Nc2ncc(C(N)=O)s2)C1)N1CC2(CCN(c3ncnnc3Oc3ccc(F)cc3-c3cncnc3C3CC3)C2)C1` (single isomer, unassigned) [Compound 446] was tested, and the IC50 [1] was ~0.1 nM and the IC50 (MOLM14 cells) was 7 nM.
`Cc1ncc(-c2cc(F)ccc2Oc2nncnc2N2CCC3(C2)CN([C@@H](C(C)C)[C@H]2C[C@@H](N4CC5COCC5C4)C2)C3)c(C2CC2)n1` (mixture of isomers) [Compound 379] gave an IC50 [1] of 0.11 nM and an IC50 (MOLM14 cells) of 1.9 nM.
With `CC(=O)Nc1cncc(N[C@H]2C[C@@H](C(C(C)C)N3CC4(CCN(c5ncnnc5Oc5ccc(F)cc5-c5cncnc5C5CC5)C4)C3)C2)c1` (single isomer, unassigned) [Compound 410] the IC50 [1] was 0.11 nM and the IC50 (MOLM14 cells) was 19 nM.
Work on `Cc1nnc(C2CC2)n1-c1cc(F)ccc1Oc1nncnc1N1CCC2(C1)CN([C@H](C(C)C)C1CC(N(C)C)C1)C2` (mixture of isomers) [Compound 502, N,N-dimethyl-3-[(1R)-1-[7-[6-[2-(3-cyclopropyl-5-methyl-1,2,4-triazol-4-yl)-4-fluoro-phenoxy]-1,2,4-triazin-5-yl]-2,7-diazaspiro[3.4]octan-2-yl]-2-methyl-propyl]cyclobutanamine] yielded an IC50 [1] of 0.12 nM and an IC50 (MOLM14 cells) of 32 nM.
In the case of `CCOC(=O)c1nnc(N[C@H]2C[C@@H](C(C(C)C)N3CC4(CCN(c5ncnnc5Oc5ccc(F)cc5-c5cncnc5C5CC5)C4)C3)C2)o1` (single isomer, unassigned) [Compound 481], the IC50 [1] is reported as 0.14 nM and the IC50 (MOLM14 cells) is reported as > 940 nM.
With `CC(C)[C@H]([C@H]1C[C@@H](N2CCC(C(=O)N(C)C)C2)C1)N1CC2(CCN(c3ncnnc3Oc3ccc(F)cc3-c3cncnc3C3CC3)C2)C1` (mixture of isomers) [Compound 210] the IC50 [1] was 0.1 nM and the IC50 (MOLM14 cells) was 5 nM.
Compound `CC(C)[C@@H]([C@H]1C[C@@H](N2CCC3(CCCO3)C2)C1)N1CC2(CCN(c3ncnnc3Oc3ccc(F)cc3-c3nnccc3C3CC3)C2)C1` (single isomer, unassigned) [Compound 270] has an IC50 [1] of 0.2 nM and an IC50 (MOLM14 cells) of 2 nM.
For `COC1(C)CN([C@H]2C[C@@H]([C@H](C(C)C)N3CC4(CCN(c5ncnnc5Oc5ccc(F)cc5-c5nnccc5C5CC5)C4)C3)C2)C1` (single isomer, unassigned) [Compound 263], the IC50 [1] was 0.2 nM and the IC50 (MOLM14 cells) was 9 nM.
`CC(=O)N[C@@H]1CCN([C@H]2C[C@@H]([C@H](C(C)C)N3CC4(CCN(c5ncnnc5Oc5ccc(F)cc5-c5cnc(C)nc5C5CC5)C4)C3)C2)C1` [Compound 389] gave an IC50 [1] of 0.046 nM and an IC50 (MOLM14 cells) of 2 nM.
With `CC(C)[C@H]([C@H]1C[C@@H](Nc2cnc3nn[nH]c3c2)C1)N1CC2(CCN(c3ncnnc3Oc3ccc(F)cc3-c3cncnc3C3CC3)C2)C1` (single isomer, unassigned) [Compound 431] the IC50 [1] was 0.54 nM and the IC50 (MOLM14 cells) was 79 nM.
